Measured values published in patent publication US20090176773A1, “Non-Peptidic Inhibitors of AKAP/PKA Interaction” (FORSCHUNGSVERBUND BERLIN E.V., priority 2005, published 2009).
“Also recorded” adds a separate entry of the source.

Each compound was assayed against AKAP18delta-RIIalpha interaction (GST-AKAP18delta binding to plate-bound PKA-RIIalpha) (Rattus norvegicus, UniProt P12368+Q6JP77) (assay: ELISA for quantitative detection of protein-protein binding between PKA-RIIalpha and GST-AKAP18delta (library screening, validation, IC50)). Conditions: not given.
AKAP18delta-RIIalpha interaction (GST-AKAP18delta binding to plate-bound PKA-RIIalpha) (Rattus norvegicus, UniProt P12368+Q6JP77), sequence (P12368 2-401): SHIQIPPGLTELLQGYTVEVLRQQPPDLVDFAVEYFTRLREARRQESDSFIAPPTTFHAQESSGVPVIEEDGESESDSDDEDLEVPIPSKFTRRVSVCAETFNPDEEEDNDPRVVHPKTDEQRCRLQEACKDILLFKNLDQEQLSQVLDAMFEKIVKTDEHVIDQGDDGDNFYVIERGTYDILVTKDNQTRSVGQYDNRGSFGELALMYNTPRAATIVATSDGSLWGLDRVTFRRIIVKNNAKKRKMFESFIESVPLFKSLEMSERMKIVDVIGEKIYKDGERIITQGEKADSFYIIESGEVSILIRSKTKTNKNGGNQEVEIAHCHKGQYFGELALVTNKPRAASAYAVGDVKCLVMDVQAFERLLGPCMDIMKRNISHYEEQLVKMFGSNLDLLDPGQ
AKAP18delta-RIIalpha interaction (GST-AKAP18delta binding to plate-bound PKA-RIIalpha) (Rattus norvegicus, UniProt P12368+Q6JP77), sequence (Q6JP77 whole entry): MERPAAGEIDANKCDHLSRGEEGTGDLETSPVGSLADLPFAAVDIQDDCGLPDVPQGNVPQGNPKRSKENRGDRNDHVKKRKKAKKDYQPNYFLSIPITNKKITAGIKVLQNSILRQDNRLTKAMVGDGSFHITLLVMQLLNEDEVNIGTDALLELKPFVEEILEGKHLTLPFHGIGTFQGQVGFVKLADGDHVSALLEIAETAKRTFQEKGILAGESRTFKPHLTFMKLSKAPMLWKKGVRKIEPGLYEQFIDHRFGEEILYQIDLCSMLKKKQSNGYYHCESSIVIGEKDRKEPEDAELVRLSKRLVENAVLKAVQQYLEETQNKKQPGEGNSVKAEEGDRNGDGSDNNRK
Description: (§1) ELISA is a method wherein an antigen is detected with a specific antibody. Detection proceeds via an enzyme linked covalently with one of the binding partners, which enzyme catalyzes chromogen conversion.
(§2) Because one of the two binding partners is immobilized, removal of unbound antibodies or antigens is very easy. Detection proceeds via observing the intensity (I) of chemiluminescence using a photomultiplier in a special reading device (ELISA reader). The output of the measured values is in relative light units (RLU).
(§3) In the present case, the point was to investigate whether binding of one protein (PKA) to another (AKAP18delta-GST) would be inhibited by the presence of small organic molecules. A sandwich ELISA was therefore developed wherein the RIIalpha PKA subunit, to which AKAP proteins bind, was bound on 384-well microtiter plates (MTP).
(§4) The white color improves detection by reflection of the chemiluminescence being formed and simultaneously prevents illumination of neighboring wells. Free binding sites were blocked after binding (see below), and the second GST-AKAP18delta protein was added to […]. Subsequently, bound GST-AKAP18delta was quantified via antibodies and chemiluminescence. The principle of ELISA is illustrated in FIG. 4.
(§5) PBS (phosphate-buffered saline, pH 7.4) was used as buffer system to maintain a physiological pH value for the proteins used. The buffer was added with a mix of protease inhibitors and PMSF as non-specific protease inhibitor to delay protein degradation. In addition, DTT was employed to protect the proteins from oxidation.
(§6) The blocking solution additionally included 0.3% skim milk powder to saturate MTP non-specific binding sites with milk proteins included therein.
(§7) To adapt the binding curves to the measured values (see results), the one-site binding model was used as a basis, which model applies to binding of GST-AKAP18delta to RIIalpha. The corresponding formula is
(§8) The measured values for IC50 calculation were adapted to the one-site competition model. It was established that the bottom asymptote should be greater than 0.0 to rule out faulty adaptations with negative binding values. The formula used is
(§9) The FMP20000 substance library was used for screening, i.e., systematic, partially automated search for potential inhibitors of AKAP18delta-RIIalpha binding. […] The substances of the library had been selected according to specific criteria which also apply to previously known pharmacological active substances. Said criteria also include Lipinski's Rule (cf. discussion). To prepare an MTP for screening, each of 380 wells was filled with 20 μl of RIIalpha solution with a concentration of 0.75 ng/μl (in binding buffer), using an electronically controlled 24-channel pipette (Eppendorf). […] Following centrifugation of the MTPs (1 min at 2500×g), the MTPs were incubated at room temperature for at least 1 h. After removing the protein solution by tapping on a paper stack, non-specific binding sites were blocked with 100 μl of blocking solution/well for at least 1 h at room temperature.
(§10) After completion of the washing operation, solution residues possibly still present were tapped off on a paper stack.
(§11) In the next step, the MTPs were prepared for automated pipetting of the low-molecular weight substances. Each well was supplied with 10 μl of blocking solution or controls pipetted in accordance with the pipetting scheme (Table 1.2). […] The plates were briefly centrifuged.
(§12) Each of the control columns 1 and 24 received 0.5 μl of DMSO, so that the controls were added with the same amount of DMSO as the other samples.
(§13) Following centrifugation of the screening MTPs, AKAP18delta-GST (8 ng/μl in blocking solution) was added in accordance with the pipetting scheme (Table 2.2), centrifuged, and incubated for at least 30 min at room temperature.

| Structure (SMILES) | Ratio IC50 (comp./990) in Screening no. 2 | Ratio IC50 (comp./990) in Screening no. 3 | Ratio IC50 (comp./990) in Screening no. 1 |
| --- | --- | --- | --- |
| C/N=C(/NC(C)c1ccccc1)SCc1ccc2ccccc2c1 (centres unmarked) [SM70] | 79.84 | – | – |
| C/N=C(/NC(C)c1ccccc1)SCc1cccc2ccccc12 (centres unmarked) [SM69] | 1.76 | – | – |
| S=C(NCCN1CCCCC1)NCc1cccc2ccccc12 [SM56] | 592.04 | – | – |
| N=C(NCc1ccccc1)SCc1cccc2ccccc12 [SM53] | 3.20 | 1.13 | – |
| CCNC(=N)SCc1cccc2ccccc12 [SM54] | 6.43 | – | – |
| C/N=C(/NC)SCc1cccc2ccccc12 [SM25] | 1.55 | 0.68 | 0.97 |
| CC(C)/N=C(\NCc1cccc2ccccc12)SCc1cccc2ccccc12 [JG26] | – | 0.87 | – |
| CC(C)(C)/N=C(\NC1=NCCS1)SCc1cccc2ccccc12 [JG21] | – | 1.97 | – |
| CN/C(=N\c1cccc2cc3ccccc3cc12)SCc1cccc2ccccc12 [JG31] | – | 8.29 | – |
| C/N=C(/NC1=NCCS1)SCc1ccc2ccccc2c1 [SM66] | 30.29 | – | – |
| S=C(NCc1cccc2ccccc12)NC1CCCCC1 [SM59] | 343.88 | – | – |
| C/N=C(/NCCCc1ccccc1)SCc1ccc2ccccc2c1 [SM68] | 86.51 | – | – |
| CNC(=S)NCc1cccc2ccccc12 [SM57] | 4.16 | – | – |
| CC(C)(C)/N=C(\NCc1cccc2ccccc12)SCc1cccc2ccccc12 [JG27] | – | 1.03 | – |
| CN/C(=N\Cc1cccc2ccccc12)SCc1cccc2ccccc12 [SM61] | 0.16 | 0.32 | – |
| c1ccc2c(CN/C(=N\C3CCCCC3)SCc3cccc4ccccc34)cccc2c1 [JG25] | – | 0.26 | – |
| CC(C)(C)/N=C(\NCc1ccccc1)SCc1cccc2ccccc12 [JG20] | – | 0.74 | – |
| C/N=C(/NCc1ccccc1)SCc1cccc2ccccc12 [SM71] | 0.41 | 0.45 | – |
| C/N=C(/NCc1ccccc1)SCc1ccc2ccccc2c1 [SM72] | 55.39 | – | – |
| N=C(N)NCc1cccc2ccccc12 [SM51] | 88.35 | – | – |
| C/N=C(/NCCCc1ccccc1)SCc1cccc2ccccc12 [SM67] | 0.51 | 1.10 | – |
| S=C(NCCN1CCCCC1)Nc1cccc2ccccc12 [SM52] | 962.65 | – | – |
| c1ccc2c(C/N=C(\NC3CCCCC3)SCc3cccc4ccccc34)cccc2c1 [SM63] | 0.55 | 1.13 | – |
| N=C(NN)SCc1cccc2ccccc12 [SM55] | 2.45 | – | – |
| C/N=C(/NC1=NCCS1)SCc1cccc2ccccc12 [SM65] | 0.14 | 0.39 | – |
| c1ccc(C/N=C(\NCc2cccc3ccccc23)SCc2cccc3ccccc23)cc1 [JG28] | – | 0.39 | – |

Same assay, conditions: Table C; screening no. 2; relative to substance 990

| Structure (SMILES) | Ratio IC50 (comp./990) in Screening no. 2 |
| --- | --- |
| CCNC(=S)NCc1cccc2ccccc12 [SM58] | 986.12 |

Same assay, conditions: Table C; screening no. 3

| Structure (SMILES) | IC50 in Screening no. 3 |
| --- | --- |
| C/N=C(\NCc1cccc2ccccc12)SCc1cccc2ccccc12 [JG23] | bad |

Same assay, conditions: validation, FIG. 15, 50 nM GST-AKAP18delta

| Structure (SMILES) | Concentration dependence of the inhibitory effect in validation (dilution series) |
| --- | --- |
| CC(C)C[C@H](NC(=O)[C@H](CCCNC(=N)N)NC(=O)[C@@H](NC(=O)[C@H](CC(C)C)NC(=O)[C@H](CCC(=O)O)NC(=O)[C@H](C)NC(=O)[C@H](CC(=O)O)NC(=O)[C@H](CCC(=O)O)NC(=O)[C@@H]1CCCN1)C(C)C)C(=O)N[C@@H](CO)C(=O)N[C@@H](CCCCN)C(=O)N[C@@H](CCCNC(=N)N)C(=O)N[C@@H](CC(C)C)C(=O)N[C@H](C(=O)N[C@@H](CCC(=O)O)C(=O)N[C@@H](CC(N)=O)C(=O)N[C@@H](C)C(=O)N[C@H](C(=O)N[C@@H](CCC(=O)O)C(=O)N[C@@H](CCCCN)C(=O)N[C@@H](C)C(=O)N[C@H](C(=O)N[C@@H](CCC(N)=O)C(=O)N[C@@H](CCC(N)=O)C(=O)N[C@@H](Cc1ccc(O)cc1)C(N)=O)C(C)C)C(C)C)C(C)C [Compound L314E, reference compound] | inhibition of binding in a concentration-dependent fashion |
| COc1ccc(CSC(=N)N)cc1Br [Compound 2348] | non-active |

What follows are compounds tested against T1, AKAP18delta-RIIalpha interaction (GST-AKAP18delta binding to plate-bound PKA-RIIalpha) (UniProt P13861+Q6JP77) in the same assay as above. Conditions: increasing peptide concentrations, FIG. 11.
T1 construct: made in house; host or cells: E. coli BL21(DE3), pGEX-4T3 vector (GST-AKAP18delta only)
T1 sequence (Q6JP77 whole entry): as above
T1 sequence (P13861 whole entry): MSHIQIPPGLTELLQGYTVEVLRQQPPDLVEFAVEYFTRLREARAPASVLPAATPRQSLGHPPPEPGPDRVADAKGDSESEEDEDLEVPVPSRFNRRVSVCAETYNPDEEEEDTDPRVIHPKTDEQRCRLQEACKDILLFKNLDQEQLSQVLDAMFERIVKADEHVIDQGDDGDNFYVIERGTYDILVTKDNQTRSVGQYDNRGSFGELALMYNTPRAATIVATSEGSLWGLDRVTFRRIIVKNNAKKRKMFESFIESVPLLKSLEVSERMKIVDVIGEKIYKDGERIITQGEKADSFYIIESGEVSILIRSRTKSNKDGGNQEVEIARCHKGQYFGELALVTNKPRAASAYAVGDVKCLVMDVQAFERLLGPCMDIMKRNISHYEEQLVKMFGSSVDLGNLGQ
Description: as §1, §2, §3, §4, §5, §6, §7, §8, §9, §10, §11, §12, §13

| Structure (SMILES) | Inhibition of GST-AKAP18delta binding to RIIalpha by peptides |
| --- | --- |
| CC(C)C[C@H](NC(=O)[C@H](CCCNC(=N)N)NC(=O)[C@@H](NC(=O)[C@H](CC(C)C)NC(=O)[C@H](CCC(=O)O)NC(=O)[C@H](C)NC(=O)[C@H](CC(=O)O)NC(=O)[C@H](CCC(=O)O)NC(=O)[C@@H]1CCCN1)C(C)C)C(=O)N[C@@H](CO)C(=O)N[C@@H](CCCCN)C(=O)N[C@@H](CCCNC(=N)N)C(=O)N[C@@H](CC(C)C)C(=O)N[C@H](C(=O)N[C@@H](CCC(=O)O)C(=O)N[C@@H](CC(N)=O)C(=O)N[C@@H](C)C(=O)N[C@H](C(=O)N[C@@H](CCC(=O)O)C(=O)N[C@@H](CCCCN)C(=O)N[C@@H](C)C(=O)N[C@H](C(=O)N[C@@H](CCC(N)=O)C(=O)N[C@@H](CCC(N)=O)C(=O)N[C@@H](Cc1ccc(O)cc1)C(N)=O)C(C)C)C(C)C)C(C)C [Compound L314E, reference compound] | stronger inhibition of binding; also recorded: competitive inhibition of binding |

Each compound was assayed on vasopressin (AVP)-dependent redistribution of the aquaporin-2 (AQP2) water channel in renal principal cells (IMCD cells) (assay: AVP-induced redistribution of AQP2 in primarily cultured IMCD cells (immunofluorescence, laser scanning microscope)). Conditions: FIG. 18 and 21.
Format: cell-based, rat
Experimental: Initially, collecting duct cells from the inner medulla of rat kidneys (IMCD cells) can be stimulated with AVP in the presence or absence of the substances so as to stimulate AQP2 translocation. Thereafter, immunofluorescence staining can be performed, wherein the cells—following incubation—are fixed and made permeable. Using antibodies coupled to fluorescent dyes, the intracellular localization of AQP2 can subsequently be determined under a fluorescence microscope. In this way it is possible to investigate the influence of the substances on the presumably AKAP18delta-dependent translocation of AQP2.
Inhibition of the vasopressin (AVP)-dependent redistribution of the aquaporin-2 (AQP2) water channel in renal principal cells by the substances specified (see Table B; concentrations of inhibitors in μM). Primarily cultured principal cells from the inner medulla of rat kidneys (IMCD cells) represent a model for the AVP-induced translocation of AQP2. Said redistribution is the molecular basis of AVP-induced water reabsorption in the kidneys. AQP2 was detected by means of a specific antiserum and Cy3-labelled secondary antibodies in untreated cells (control) and in cells treated with AVP or substances, using a laser scanning microscope (Tamma et al., 2003; Henn et al., 2004).
Effect of the low-molecular weight substances 18882, 990 and 990 derivatives SM61 and SM65 on AVP-induced redistribution of AQP2 in IMCD cells (see FIG. 18). The structures and chemical properties of the substances are illustrated in Tables A, B and C (concentrations of inhibitors in μM). AQP2 was detected by means of a specific antiserum and Cy3-labelled secondary antibodies in untreated cells (control) and in cells treated with AVP or substances, using a laser scanning microscope (Tamma et al., 2003; Henn et al., 2004). […] In contrast, the substances 18882 and the 990 derivative SM65 have no influence on AVP-induced AQP2 redistribution at the concentrations used.

| Structure (SMILES) | Effect on AVP-induced redistribution of AQP2 |
| --- | --- |
| CN/C(=N\Cc1cccc2ccccc12)SCc1cccc2ccccc12 [SM61] | inhibits the AVP-induced redistribution of AQP2 |
| C/N=C(/NC1=NCCS1)SCc1cccc2ccccc12 [SM65] | no influence |
